{"source": "patent US9062050B2", "about": "“Inhibitor of JAK1 and JAK2” (Eli Lilly and Company, priority 2012, dated 2015)", "system": "phosphorylation of STAT3", "assay": "Mia-Paca2-MSD-pSTAT3 cell-based assay", "details": "Homo sapiens, MIA PaCa-2; Mia-paca2 pancreatic cancer cells, stimulated with conditioned medium; read-out: IC50, inhibits the phosphorylation of STAT3", "description": "The Mia-Paca2-MSD (MesoScale Diagnostics)-pSTAT3 cell-based assay is used to examine the potency of compounds at blocking STAT3 phosphorylation in pancreatic cancer cells. Mia-paca2 cells (ATCC) are grown in DMEM complete medium supplemented with 10% FBS at 37° C. in incubator with 5% CO2. Cells are then collected, counted, plated at 4×10^4 cells/well in 96-well plates, and cultured for overnight at 37° C. with 5% CO2. Culture medium is removed from the cells and replaced with serum-free medium containing either vehicle alone (DMSO) or 2× final concentrations of compounds across a range from 0-20 μM at 1:3 dilution (10 dilutions). […] After stimulation, all medium is manually removed as above and cells are lysed in 50 microliters of ice cold 1×MSD lysis buffer (MesoScale Diagnostics, K150DID-2) containing 1×HALT protease and phosphatase inhibitor cocktail ((Thermo Scientific, 78441). The 96-well plates are sealed and then mixed for 2 minutes on an orbital shaker at room temperature, and then immediately frozen at −80° C. overnight. pSTAT3 is detected with the use of the MA6000 MSD Whole Cell Lysate Kit for Phospho-STAT-3 (Tyr 705) (MesoScale Diagnostics, #K150DID-2) as following, plates were blocked with blocking buffer at room temperature for 1-2 hours with shaking, and then washed 4× with washing buffer. […]"}
{"smiles": "Cc1cc(Nc2ccc3ncn([C@@H]4CCc5ccc(F)cc54)c3n2)[nH]n1.Cl.Cl", "note": "[Example 1, 3-[(1R)-6-fluoro-2,3-dihydro-1H-inden-1-yl]-N-(3-methyl-1H-pyrazol-5-yl)-3H-imidazo[4,5-b]pyridin-5-amine dihydrochloride]", "values": [{"measurement": "IC50", "result": 0.012, "unit": "µM"}]}
